“And” between values parts separate entries of the source, which are not always exact repeats. Identical values can stand only once. Toxic doses and inconclusive results are not listed. The calls were made as follows: active = survival T/C of 150% or more; inactive = T/C below 125% in these data.
Tested on: AKR/Lw mice, AKR lymphoma ip, median survival T/C
Assay: NCI In Vivo Anticancer Drug Screen. Data for tumor model Lymphoma AKR (Transplanted) (intraperitoneal) in AKR/Lw mice
Conditions: endpoint: median survival time, higher = longer survival
Experimental: The antitumor activity of compounds was measured in mice bearing transplantable tumors. Survival or tumor size were measured and the results are expressed as the measurement made in the treated group (T) divided by the measurement made in the vehicle treated control group (C). The tumor model used in this assay is Lymphoma AKR (Transplanted) (intraperitoneal) in AKR/Lw mice

Measured: T/C

O=[N+]([O-])O.[Ga]
inactive: dose: 1.25 mg/kg/injection, schedule: Q01DX001 (ip), vehicle: saline 102 % of control | dose: 2.5 mg/kg/injection, schedule: Q01DX001 (ip), vehicle: saline 102 % of control | dose: 2.5 mg/kg/injection, schedule: Q01DX009 (ip), vehicle: saline 114 % of control | dose: 2.5 mg/kg/injection, schedule: Q04DX003 (ip), vehicle: saline 87 % of control | dose: 3.1 mg/kg/injection, schedule: Q01DX001 (ip), vehicle: saline 105 % of control | dose: 5.0 mg/kg/injection, schedule: Q01DX001 (ip), vehicle: saline 102 % of control | dose: 5.0 mg/kg/injection, schedule: Q01DX009 (ip), vehicle: saline 91 % of control and 100 % of control | dose: 5.0 mg/kg/injection, schedule: Q04DX003 (ip), vehicle: saline 93 % of control and 108 % of control | dose: 6.2 mg/kg/injection, schedule: Q01DX001 (ip), vehicle: saline 94 % of control | dose: 6.2 mg/kg/injection, schedule: Q04DX003 (ip), vehicle: saline 102 % of control | dose: 7.5 mg/kg/injection, schedule: Q01DX009 (ip), vehicle: saline 86 % of control | dose: 8.0 mg/kg/injection, schedule: Q01DX009 (ip), vehicle: saline 100 % of control | dose: 10.0 mg/kg/injection, schedule: Q01DX001 (ip), vehicle: saline 92 % of control and 105 % of control | dose: 10.0 mg/kg/injection, schedule: Q01DX009 (ip), vehicle: saline 97 % of control and 111 % of control | dose: 10.0 mg/kg/injection, schedule: Q04DX003 (ip), vehicle: saline 87 % of control and 108 % of control | dose: 12.5 mg/kg/injection, schedule: Q01DX009 (ip), vehicle: saline 105 % of control | dose: 12.5 mg/kg/injection, schedule: Q04DX003 (ip), vehicle: saline 102 % of control | dose: 20.0 mg/kg/injection, schedule: Q01DX001 (ip), vehicle: saline 105 % of control | dose: 20.0 mg/kg/injection, schedule: Q01DX009 (ip), vehicle: saline 94 % of control and 102 % of control | dose: 20.0 mg/kg/injection, schedule: Q04DX003 (ip), vehicle: saline 93 % of control and 106 % of control | dose: 25.0 mg/kg/injection, schedule: Q01DX009 (ip), vehicle: saline 88 % of control and 105 % of control | dose: 25.0 mg/kg/injection, schedule: Q04DX003 (ip), vehicle: saline 94 % of control | dose: 40.0 mg/kg/injection, schedule: Q01DX001 (ip), vehicle: saline 105 % of control | dose: 50.0 mg/kg/injection, schedule: Q01DX009 (ip), vehicle: saline 105 % of control and 110 % of control and 113 % of control | dose: 64.0 mg/kg/injection, schedule: Q04DX003 (ip), vehicle: water 116 % of control | dose: 500.0 mg/kg/injection, schedule: Q01DX001 (ip), vehicle: saline 88 % of control and 95 % of control

Cc1ccc(N2C(=O)CC(Sc3ccccc3N)C2=O)cc1 (stereo not drawn)
inactive: dose: 50.0 mg/kg/injection, schedule: Q04DX003 (ip), vehicle: Klucel (hydroxypropylcellulose) (HPC) 100 % of control | dose: 100.0 mg/kg/injection, schedule: Q01DX001 (ip), vehicle: Klucel (hydroxypropylcellulose) (HPC) 100 % of control | dose: 100.0 mg/kg/injection, schedule: Q04DX003 (ip), vehicle: Klucel (hydroxypropylcellulose) (HPC) 90 % of control | dose: 200.0 mg/kg/injection, schedule: Q04DX003 (ip), vehicle: Klucel (hydroxypropylcellulose) (HPC) 90 % of control

ClC1=C(Cl)C2(Cl)C3(Cl)C(Cl)=C(Cl)C(Cl)(C34OCCO4)C2(Cl)C12OCCO2 (stereo not drawn)
inactive: dose: 100.0 mg/kg/injection, schedule: Q01DX001 (ip), vehicle: saline 96 % of control | dose: 200.0 mg/kg/injection, schedule: Q01DX001 (ip), vehicle: saline 108 % of control | dose: 400.0 mg/kg/injection, schedule: Q01DX001 (ip), vehicle: saline 108 % of control
